Reference: patent US8871754B2, “Compounds and compositions for the treatment of parasitic diseases” (IRM LLC, priority 2012, dated 2014)

tested on: P. falciparum (NF54 or 3D7 strain) in infected human erythrocytes; assay: Assay for P. falciparum proliferation in infected human blood cells (SYBR Green); type: cell-based; settings: Plasmodium falciparum, Erythrocyte, 72 h, read-out: EC50 (nM), inhibitory efficacy in delaying P. falciparum proliferation in infected human blood cells
Procedure: Assay for P. falciparum Proliferation in Infected Human Blood Cells
Compounds of the invention can be assayed to measure their capacity to inhibit proliferation of P. falciparum parasitemia in infected red blood cells. This parasite proliferation assay measures the increase in parasite DNA content using a DNA intercalating dye, SYBR Green® (INVITROGEN®) which has a high affinity for double stranded DNA.
NF54 or 3D7 P. falciparum strain is grown in complete culturing media until parasitemia reaches 3% to 8% with O+ human erythrocytes. […] 20 μl of screening media is dispensed into 384 well assay plates. 50 nl of compounds of the invention (in DMSO), including antimalarial controls (mefloquine, pyrimethamine and artemisinin), are then transferred into the assay plates, as well as DMSO alone to serve as a negative control for inhibition. Then 30 μl of a suspension of a NF54 or 3D7 P. falciparum infected erythrocytes in screening media is dispensed into the assay plates such that the final hematocrit is 2.5% with a final parasitemia of 0.3%. The plates are placed in a 37° C. incubator for 72 hours in a low oxygen environment containing 93% N2, 4% CO2, and 3% O2 gas mixture. 10 μl of lysis buffer (saponin, triton-X, EDTA) containing a 10× solution of SYBR Green I® in RPMI media is dispensed into the plates. The plates are lidded and kept at room temperature overnight for the lysis of the infected red blood cells. The fluorescence intensity is measured (excitation […], emission 530 nm) using the Envision™ system (Perkin Elmer). The percentage inhibition of 50%, […], is calculated for each compound.

SMILES	EC50 [nM]
Fc1ccc(CCc2ccn3ncc(-c4ccc(C(F)(F)F)cc4)c3c2)cc1 [Example 16, 5-(4-fluorophenethyl)-3-(4-(trifluoromethyl)phenyl)pyrazolo[1,5-a]pyridine]	477

same assay, conditions: Plasmodium falciparum, Erythrocyte; NF54 or 3D7 strain, 72 hours, SYBR Green fluorescence; read-out: EC50 (nM), inhibitory efficacy in delaying P. falciparum proliferation in infected human blood cells

SMILES	EC50 [nM]
CN(Cc1ccn2ncc(-c3ccc(C(F)(F)F)cc3)c2c1)c1ccc(F)cc1 [Example 2, 4-fluoro-N-methyl-N-((3-(4-(trifluoromethyl)phenyl)pyrazolo[1,5-a]pyridine-5-yl)methyl)aniline]	342
CN(C(=O)c1ccn2ncc(-c3ccc(C(F)(F)F)cc3)c2c1)c1ccc(Cl)cc1 [Example 3, N-(4-chlorophenyl)-N-methyl-3-(4-(trifluoromethyl)phenyl)pyrazolo[1,5-a]pyridine-5-carboxamide]	94
Cc1ccc(N(C)C(=O)c2ccn3ncc(-c4ccc(C(F)(F)F)cc4)c3c2)nc1 [Example 5, N-methyl-N-(5-methylpyridin-2-yl)-3-(4-(trifluoromethyl)phenyl)pyrazolo[1,5-a]pyridine-5-carboxamide]	88
Fc1ccc(OCc2ccn3ncc(-c4ccc(C(F)(F)F)cc4)c3c2)cc1 [Example 8, 5-((4-fluorophenoxy)methyl)-3-(4-(trifluoromethyl)phenyl)pyrazolo[1,5-a]pyridine]	532
COCCN(C(=O)c1ccn2ncc(-c3ccc(C(F)(F)F)cc3)c2c1)c1ccc(C#N)cc1 [Example 9, N-(4-cyanophenyl)-N-(2-methoxyethyl)-3-(4-(trifluoromethyl)phenyl)pyrazolo[1,5-a]pyridine-5-carboxamide]	6
Cc1ccc(OCc2ccn3ncc(-c4ccc(C(F)(F)F)cc4)c3c2)nc1 [Example 15, 5-(((5-methylpyridin-2-yl)oxy)methyl)-3-(4-(trifluoromethyl)phenyl)pyrazolo[1,5-a]pyridine]	2320
CC(=O)Nc1ccc(-c2cnn3ccc(C(=O)N(C)c4ccc(C#N)cc4)cc23)cn1 [Example 18, 3-(6-acetamidopyridin-3-yl)-N-(4-cyanophenyl)-N-methylpyrazolo[1,5-a]pyridine-5-carboxamide]	3
[O-][S+](Cc1ccn2ncc(-c3ccc(C(F)(F)F)cc3)c2c1)c1ccc(F)cc1 (centres unmarked) [Example 22, 5-(((4-fluorophenyl)sulfinyl)methyl)-3-(4-(trifluoromethyl)phenyl)pyrazolo[1,5-a]pyridine]	25
CN(C(=O)c1ccn2ncc(-c3ccc(-c4ccn[nH]4)cc3)c2c1)c1ccc(C#N)cc1 [Example 23, 3-(4-(1H-pyrazol-5-yl)phenyl)-N-(4-cyanophenyl)-N-methylpyrazolo[1,5-a]pyridine-5-carboxamide]	2
CN(C(=O)c1ccc(F)cc1)c1ccn2ncc(-c3ccc(C(F)(F)F)cc3)c2c1 [Example 29, 4-fluoro-N-methyl-N-(3-(4-(trifluoromethyl)phenyl)pyrazolo[1,5-a]pyridine-5-yl)benzamide]	150
Fc1ccc(CNc2ccn3ncc(-c4ccc(C(F)(F)F)cc4)c3c2)cc1 [Example 35, N-(4-fluorobenzyl)-3-(4-(trifluoromethyl)phenyl)pyrazolo[1,5-a]pyridine-5-amine]	2040
CN(Cc1ccc(F)cc1)c1ccn2ncc(-c3ccc(C(F)(F)F)cc3)c2c1 [Example 36, N-(4-fluorobenzyl)-N-methyl-3-(4-(trifluoromethyl)phenyl)pyrazolo[1,5-a]pyridine-5-amine]	390
CN(C(=O)c1ccc(C(F)(F)F)nc1)c1ccn2ncc(-c3ccc(C(F)(F)F)cc3)c2c1 [Example 37, N-methyl-6-(trifluoromethyl)-N-(3-(4-(trifluoromethyl)phenyl)pyrazolo[1,5-a]pyridine-5-yl)nicotinamide]	121
CN(C(=O)c1ccc(C(F)(F)F)cn1)c1ccn2ncc(-c3ccc(C(F)(F)F)cc3)c2c1 [Example 38, N-methyl-5-(trifluoromethyl)-N-(3-(4-(trifluoromethyl)phenyl)pyrazolo[1,5-a]pyridine-5-yl)picolinamide]	179
CN(C(=O)c1ccn2ncc(-c3ccc(N)cc3)c2c1)c1ccc(C#N)cc1 [Example 42, 3-(4-aminophenyl)-N-(4-cyanophenyl)-N-methylpyrazolo[1,5-a]pyridine-5-carboxamide]	18
CN(C(=O)c1ccn2ncc(-c3ccc(NC(=O)CN)cc3)c2c1)c1ccc(C#N)cc1 [Example 43, 3-(4-(2-aminoacetamido)phenyl)-N-(4-cyanophenyl)-N-methylpyrazolo[1,5-a]pyridine-5-carboxamide]	9

Further lines, results first:

EC50 [nM]	SMILES
46	CN(C(=O)c1ccn2ncc(-c3ccc(C(F)(F)F)cc3)c2c1)c1ccc(F)cc1 [Example 4, N-(4-fluorophenyl)-N-methyl-3-(4-(trifluoromethyl)phenyl)pyrazolo[1,5-a]pyridine-5-carboxamide]
284	CN(Cc1ccn2ncc(-c3ccc(C(F)(F)F)cc3)c2c1)c1ccc(Cl)cc1 [Example 6, 4-chloro-N-methyl-N-((3-(4-(trifluoromethyl)phenyl)pyrazolo[1,5-a]pyridine-5-yl)methyl)aniline]
975	Cc1ccc(N(C)Cc2ccn3ncc(-c4ccc(C(F)(F)F)cc4)c3c2)nc1 [Example 7, N,5-dimethyl-N-((3-(4-(trifluoromethyl)phenyl)pyrazolo[1,5-a]101yridine-5-yl)methyl)pyridine-2-amine]
7	CN(C)CCN(C(=O)c1ccn2ncc(-c3ccc(C(F)(F)F)cc3)c2c1)c1ccc(C#N)cc1 [Example 10, N-(4-cyanophenyl)-N-(2-(dimethylamino)ethyl)-3-(4-(trifluoromethyl)phenyl)pyrazolo[1,5-a]pyridine-5-carboxamide]
6	N#Cc1ccc(N(CC2CCOCC2)C(=O)c2ccn3ncc(-c4ccc(C(F)(F)F)cc4)c3c2)cc1 [Example 11, N-(4-cyanophenyl)-N-((tetrahydro-2H-pyran-4-yl)methyl)-3-(4-(trifluoromethyl)phenyl)pyrazolo[1,5-a]pyridine-5-carboxamide]
9	CS(=O)(=O)c1ccc(N(CC2CCOCC2)C(=O)c2ccn3ncc(-c4ccc(C(F)(F)F)cc4)c3c2)cc1 [Example 12, N-(4-(methylsulfonyl)phenyl)-N-((tetrahydro-2H-pyran-4-yl)methyl)-3-(4-(trifluoromethyl)phenyl)pyrazolo[1,5-a]pyridine-5-carboxamide]
134	Cc1cncc(N(C)C(=O)c2ccn3ncc(-c4ccc(C(F)(F)F)cc4)c3c2)c1 [Example 14, N-methyl-N-(5-methylpyridin-3-yl)-3-(4-(trifluoromethyl)phenyl)pyrazolo[1,5-a]pyridine-5-carboxamide]
3	CN(C(=O)c1ccn2ncc(-c3ccc4c(cnn4C)c3)c2c1)c1ccc(C#N)cc1 [Example 17, N-(4-cyanophenyl)-N-methyl-3-(1-methyl-1H-indazol-5-yl)pyrazolo[1,5-a]pyridine-5-carboxamide]
472	Fc1ccc(SCc2ccn3ncc(-c4ccc(C(F)(F)F)cc4)c3c2)cc1 [Example 21, 5-(((4-fluorophenyl)thio)methyl)-3-(4-(trifluoromethyl)phenyl)pyrazolo[1,5-a]pyridine]
10	CN(C(=O)c1ccn2ncc(-c3ccc(C(F)(F)F)cn3)c2c1)c1ccc(C#N)cc1 [Example 24, N-(4-cyanophenyl)-N-methyl-3-(5-(trifluoromethyl)109yridine-2-yl)pyrazolo[1,5-a]pyridine-5-carboxamide]
22	C[C@H](N)C(=O)Nc1ccc(-c2cnn3ccc(C(=O)N(C)c4ccc(C#N)cc4)cc23)cc1 [Example 26, (S)-3-(4-(2-aminopropanamido)phenyl)-N-(4-cyanophenyl)-N-methylpyrazolo[1,5-a]pyridine-5-carboxamide]
62	CN(c1ccn2ncc(-c3ccc(C(F)(F)F)cc3)c2c1)S(=O)(=O)c1ccc(C#N)cc1 [Example 30, 4-cyano-N-methyl-N-(3-(4-(trifluoromethyl)phenyl)pyrazolo[1,5-a]pyridine-5-yl)benzenesulfonamide]
143	CN(c1ccn2ncc(-c3ccc(C(F)(F)F)cc3)c2c1)S(=O)(=O)c1ccc(F)cc1 [Example 31, 4-fluoro-N-methyl-N-(3-(4-(trifluoromethyl)phenyl)pyrazolo[1,5-a]pyridine-5-yl)benzenesulfonamide]
59	CN(C(=O)c1ccn2ncc(-c3ccc(C(F)(F)F)cc3)c2c1)c1ccc(C(F)(F)F)cn1 [Example 33, N-methyl-3-(4-(trifluoromethyl)phenyl)-N-(5-(trifluoromethyl)pyridine-2-yl)pyrazolo[1,5-a]pyridine-5-carboxamide]
831	N#Cc1ccc(C(=O)N(CC2CCOCC2)c2ccn3ncc(-c4ccc(C(F)(F)F)cc4)c3c2)cc1 [Example 39, 4-cyano-N-((tetrahydro-2H-pyran-4-yl)methyl)-N-(3-(4-(trifluoromethyl)phenyl)pyrazolo[1,5-a]pyridin-5-yl)benzamide]
